pKi: −log10 of the molar value.
Legend:
h-GABA-A α5β3γ2 [1] = target: T1, h-GABA-A α5β3γ2 (Homo sapiens (Human), UniProt P18507+P31644); experiment: Two-electrode voltage clamp electrophysiology in Xenopus oocytes expressing GABAA receptors, modulation of GABA EC20 current; assay type: cell-based; settings: Xenopus oocytes; for Efficacy (GABA) %: % modulation of GABA EC20 = 100*(Fold increase−1); for Fold increase h-GABA-A α5β3γ2 oocyte: GABA EC20, test compound at approx. 30 fold its Ki
Experimental: Xenopus laevis oocytes at maturation stages V-VI were used for the expression of cloned mRNA encoding GABAA receptor subunits. Oocytes ready for RNA micro-injection were bought from Ecocyte, Castrop-Rauxel, Germany and stored in modified Barth's medium (composition in mM: NaCl 88, KCl 1, NaHCO32.4, HEPES 10, MgSO4 0.82, CaNO3 0.33, CaCl2) 0.33, pH=7.5) at 20° C. until the experiment.
Oocytes were plated in 96-well plates to be used in an automated instrument (Robo-ocyte, MultiChannelSystems, Reutlingen, Germany) for microinjection and electrophysiological recordings. Approximately 50 nl of an aqueous solution containing the RNA transcripts for the subunits of the desired GABAA receptor was injected into each oocyte. RNA concentrations ranged between 0.3 and 16 ng/μl/subunit and were adjusted in pilot experiments to obtain GABA responses of a suitable size and a maximal effect of the reference modulator, Beta-CCM (β-CCM), a betacarboline negative allosteric modulator (NAM) at the GABAA receptor benzodiazepine (BZD) binding site or Midazolam, a benzodiazepine positive allosteric modulator (PAM) at the GABAA receptor benzodiazepine (BZD) binding site. The concentration of the γ2 subunit encoding RNA usually was 5-to 10-fold higher than the RNAs encoding the other subunits. Oocytes were kept in modified Barth's medium (composition in mM: NaCl 88, KCl 1, NaHCO3 4, HEPES 10, MgSO4 0.82, CaNO3 0.33, CaCl2 0.33, pH=7.5) at 20° C. until the experiment.
Electrophysiological experiments were performed on days 3 to 5 after the micro-injection of mRNA. During the experiment the oocytes were constantly superfused by a solution containing (in mM) NaCl 90, KCl 1, HEPES 5, MgCl2 1, CaCl2 1 (pH 7.4). Oocytes were impaled by two glass microelectrodes (resistance: 0.4 MΩ) which were filled with a solution containing KCl 1M+K-acetate 1.5 M and voltage-clamped to −80 mV. The recordings were performed at room temperature using the Roboocyte two-electrode voltage clamp system (Multichannelsystem). After an initial equilibration period of 1.5 min GABA was added for 1.5 min at a concentration evoking approximately 20% of a maximal current response (EC20). After another rest interval of 2.5 min GABA was again added evoking a response of similar amplitude and shape. […] Current traces were recorded at a digitization rate of 10 Hz during and shortly before and after the GABA application.
Each compound and concentration was tested on at least 3 oocytes.
For the analysis, the digitized current traces of the first and second GABA response were superimposed and, if necessary, rescaled to equal maximal amplitudes. The ratio between the two responses during the time interval of test compound application was calculated point by point. The extremum of the resulting “ratio trace” was taken as the efficacy (“Fold increase”) of the compound expressed as “% modulation of GABA EC20” (100*(Fold increase−1)).

h-GABA-A α5β3γ2 [2] = target: T1, h-GABA-A α5β3γ2; experiment: [3H]flumazenil competition binding assay, membranes of HEK293 cells expressing human GABAA receptors; settings: displacement of [3H]flumazenil 0.5 nM, HEK293 cells expressing human receptors, mean of two determinations; read-out: Ki h-GABA-A α5β3γ2
Experimental: The affinity of compounds at GABAA receptor subtypes was measured by competition for [3H]flumazenil (85 Ci/mmol; Roche) binding to HEK293 cells expressing rat (stably transfected) or human (transiently transfected) receptors of composition α1β3γ2, α2β3γ2, α3β3γ2 and α5β3γ2.
Cell pellets were suspended in Krebs-tris buffer (4.8 mM KCl, 1.2 mM CaCl2, 1.2 mM MgCl2, 120 mM NaCl, 15 mM Tris; pH 7.5; binding assay buffer), homogenized by polytron for ca. 20 sec on ice and centrifuged for 60 min at 4° C. (50000 g; Sorvall, rotor: SM24=20000 rpm). The cell pellets were resuspended in Krebs-tris buffer and homogenized by polytron for ca. 15 sec on ice. Protein was measured (Bradford method, Bio-Rad) and aliquots of 1 mL were prepared and stored at −80° C.
Assays were incubated to equilibrium for 1 hour at 4° C. and harvested onto GF/C uni-filters (Packard) by filtration using a Packard harvester and washing with ice-cold wash buffer (50 mM Tris; pH 7.5). After drying, filter-retained radioactivity was detected by liquid scintillation counting. Ki values were calculated using Excel-Fit (Microsoft) and are the means of two determinations.

| Compound | Efficacy (GABA) % (h-GABA-A α5β3γ2 [1]) | Fold increase h-GABA-A α5β3γ2 oocyte (h-GABA-A α5β3γ2 [1]) | pKi (h-GABA-A α5β3γ2 [2]) |
| --- | --- | --- | --- |
| Cc1ccc(-c2noc(C)c2COc2cc3c(cn2)C(=O)N(C2CCOCC2)C3)cn1 [Example 22, 6-((5-methyl-3-(6-methylpyridin-3-yl)isoxazol-4-yl)methoxy)-2-(tetrahydro-2H-pyran-4-yl)-1H-pyrrolo[3,4-c]pyridin-3(2H)-one] | 44% | 1.44 | 7.97 |
| Cc1ccc(-c2noc(C)c2COc2ccc(C(=O)N[C@H]3CCCC[C@@H]3O)nn2)cn1 [Example 24, N-((1S,2S)-2-hydroxycyclohexyl)-6-((5-methyl-3-(6-methylpyridin-3-yl)isoxazol-4-yl)methoxy)pyridazine-3-carboxamide] | 63% | 1.63 | 7.38 |
| Cc1ccc(-c2noc(C)c2COc2ccc(C(=O)N[C@@H]3CCCC[C@H]3O)nn2)cn1 [Example 25, N-((1R,2R)-2-hydroxycyclohexyl)-6-((5-methyl-3-(6-methylpyridin-3-yl)isoxazol-4-yl)methoxy)pyridazine-3-carboxamide] | 59% | 1.59 | 8.03 |
| Cc1ccc(-c2noc(C)c2COc2ccc(C(=O)N[C@@H]3CCCC[C@@H]3O)nn2)cn1 [Example 27, N-((1R,2S)-2-hydroxycyclohexyl)-6-((5-methyl-3-(6-methylpyridin-3-yl)isoxazol-4-yl)methoxy)pyridazine-3-carboxamide] | 54% | 1.54 | 7.91 |
| Cc1ccc(-c2noc(C)c2COc2ccc(C(=O)NC3CCS(=O)(=O)CC3)nn2)cn1 [Example 30, N-(1,1-dioxothian-4-yl)-6-((5-methyl-3-(6-methylpyridin-3-yl)-1,2-oxazol-4-yl)methoxy)pyridazine-3-carboxamide] | 94% | 1.94 | 7.91 |
| Cc1ccc(-c2noc(C)c2COc2ccc(C(=O)NCC3CC3)nn2)cn1 [Example 31, N-(cyclopropylmethyl)-6-((5-methyl-3-(6-methylpyridin-3-yl)isoxazol-4-yl)methoxy)pyridazine-3-carboxamide] | 102% | 2.02 | 7.85 |
| Cc1ccc(-c2noc(C)c2COc2ccc(C(=O)NCCC#N)nn2)cn1 [Example 33, N-(2-cyanoethyl)-6-((5-methyl-3-(6-methylpyridin-3-yl)isoxazol-4-yl)methoxy)pyridazine-3-carboxamide] | 76% | 1.76 | 7.94 |
| Cc1ccc(-c2noc(C)c2COc2ccc(C(=O)NCC(C)C)nn2)cn1 [Example 39, N-isobutyl-6-((5-methyl-3-(6-methylpyridin-3-yl)isoxazol-4-yl)methoxy)pyridazine-3-carboxamide] | 89% | 1.89 | 7.84 |
| Cc1ccc(-c2noc(C)c2COc2ccc(C(=O)NCC(F)(F)F)nn2)cn1 [Example 40, 6-((5-methyl-3-(6-methylpyridin-3-yl)isoxazol-4-yl)methoxy)-N-(2,2,2-trifluoroethyl)pyridazine-3-carboxamide] | 91% | 1.91 | 7.97 |
| Cc1ccc(-c2noc(C)c2COc2ccc(C(=O)NC(C)(C)C)nn2)cn1 [Example 41, N-tert-butyl-6-((5-methyl-3-(6-methylpyridin-3-yl)isoxazol-4-yl)methoxy)pyridazine-3-carboxamide] | 104% | 2.04 | 7.71 |
| Cc1ccc(-c2noc(C)c2COc2ccc(C(=O)NC3CCC(F)(F)CC3)nn2)cn1 [Example 43, N-(4,4-difluorocyclohexyl)-6-((5-methyl-3-(6-methylpyridin-3-yl)isoxazol-4-yl)methoxy)pyridazine-3-carboxamide] | 82% | 1.82 | 7.79 |

The next molecules have a higher pKi (h-GABA-A α5β3γ2 [2]) than those just listed; values first:

| Efficacy (GABA) % (h-GABA-A α5β3γ2 [1]) | Fold increase h-GABA-A α5β3γ2 oocyte (h-GABA-A α5β3γ2 [1]) | pKi (h-GABA-A α5β3γ2 [2]) | Compound |
| --- | --- | --- | --- |
| 80% | 1.8 | 8.28 | Cc1ccc(-c2noc(C)c2COc2ccc(C(=O)NC3CC3)nn2)cn1 [Example 26, N-cyclopropyl-6-((5-methyl-3-(6-methylpyridin-3-yl)isoxazol-4-yl)methoxy)pyridazine-3-carboxamide] |
| 52% | 1.52 | 8.10 | Cc1ccc(-c2noc(C)c2COc2ccc(C(=O)N[C@@H]3CCOC[C@H]3O)nn2)cn1 [Example 28, N-((3S,4R)-3-hydroxytetrahydropyran-4-yl)-6-((5-methyl-3-(6-methylpyridin-3-yl)isoxazol-4-yl)methoxy)pyridazine-3-carboxamide] |
| 81% | 1.81 | 8.10 | Cc1ccc(-c2noc(C)c2COc2ccc(C(=O)NCCO)nn2)cn1 [Example 29, N-(2-hydroxyethyl)-6-((5-methyl-3-(6-methylpyridin-3-yl)isoxazol-4-yl)methoxy)pyridazine-3-carboxamide] |
| 79% | 1.79 | 8.07 | Cc1ccc(-c2noc(C)c2COc2ccc(C(=O)NC(C)(C)CO)nn2)cn1 [Example 32] |
| 82% | 1.82 | 8.36 | Cc1ccc(-c2noc(C)c2COc2ccc(C(=O)NC3COC3)nn2)cn1 [Example 35, 6-((5-methyl-3-(6-methylpyridin-3-yl)isoxazol-4-yl)methoxy)-N-(oxetan-3-yl)pyridazine-3-carboxamide] |
| 73% | 1.73 | 8.12 | CCNC(=O)c1ccc(OCc2c(-c3ccc(C)nc3)noc2C)nn1 [Example 37, N-ethyl-6-((5-methyl-3-(6-methylpyridin-3-yl)isoxazol-4-yl)methoxy)pyridazine-3-carboxamide] |
| 84% | 1.84 | 8.12 | Cc1ccc(-c2noc(C)c2COc2ccc(C(=O)NC(C)C)nn2)cn1 [Example 38, N-isopropyl-6-((5-methyl-3-(6-methylpyridin-3-yl)isoxazol-4-yl)methoxy)pyridazine-3-carboxamide] |
| 81% | 1.81 | 8.05 | Cc1ccc(-c2noc(C)c2COc2ccc(C(=O)NC3CC(F)(F)C3)nn2)cn1 [Example 42, N-(3,3-difluorocyclobutyl)-6-((5-methyl-3-(6-methylpyridin-3-yl)isoxazol-4-yl)methoxy)pyridazine-3-carboxamide] |
| 63% | 1.63 | 8.46 | CNC(=O)c1ccc(OCc2c(-c3ccc(C)nc3)noc2C)nn1 [Example 46, N-methyl-6-((5-methyl-3-(6-methylpyridin-3-yl)isoxazol-4-yl)methoxy)pyridazine-3-carboxamide] |
